From patent US12319672B2, “Alpha-D-galactopyranoside derivatives” (Idorsia Pharmaceuticals Ltd, priority 2019, dated 2025) come the findings set out here.

pIC50: −log10 of the molar value.

One experiment addresses human Gal-1 (hGal-1). The experiment is described as follows: Competitive binding assay: binding of biotinylated hGal-1 to microplate-adsorbed asialofetuin (ASF). The following applies: Activities on hGal-1; mean values of several measurements. The method in brief: (§1)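 Spectrophotometric readout (streptavidin-peroxidase, ABTS) of biotinylated galectin retained on ASF-coated wells. Biotinylated hGal-1 or hGal-3, 300-1000 ng/mL, co-incubated with test compound 3 h at 4° C, then washed. Mean IC50 from repeat runs.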

Another experiment addresses human Gal-3 (hGal-3) (Homo sapiens (Human), UniProt P17931). As to the kind of experiment: Competitive binding assay: binding of biotinylated hGal-3 to microplate-adsorbed asialofetuin (ASF). The following applies: Activity on hGal-3; mean values of several measurements. The method in brief: as §1

Sequence of human Gal-1 (hGal-1) (P09382 2-135 limits assumed): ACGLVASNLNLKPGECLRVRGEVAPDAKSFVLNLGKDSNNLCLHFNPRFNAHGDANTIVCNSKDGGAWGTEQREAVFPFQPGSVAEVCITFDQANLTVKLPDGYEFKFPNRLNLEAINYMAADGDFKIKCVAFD
Sequence of human Gal-3 (hGal-3) (P17931 whole entry): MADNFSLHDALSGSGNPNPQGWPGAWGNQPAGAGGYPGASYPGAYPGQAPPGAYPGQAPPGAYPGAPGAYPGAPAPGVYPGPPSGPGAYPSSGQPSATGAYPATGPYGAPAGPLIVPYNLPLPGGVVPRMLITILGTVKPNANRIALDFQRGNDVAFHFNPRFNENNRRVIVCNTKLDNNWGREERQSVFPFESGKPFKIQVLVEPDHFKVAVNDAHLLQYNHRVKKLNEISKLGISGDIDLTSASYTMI

One may read the pIC50 as the IC50 on a negative log10 scale, so that one unit is a factor of ten. The low end stands for a high IC50, the high end for a low IC50. As for `CC(C)(C)c1cc(C[C@H]2O[C@H](CO)[C@H](O)[C@H](n3cc(-c4ccc(F)c(F)c4F)nn3)[C@H]2O)on1` [Example 2.49, (2R,3R,4R,5R,6R)-2-((3-(tert-butyl)isoxazol-5-yl)methyl)-6-(hydroxymethyl)-4-(4-(2,3,4-trifluorophenyl)-1H-1,2,3-triazol-1-yl)tetrahydro-2H-pyran-3,5-diol], the figures for the pIC50 at human Gal-1 (hGal-1) and at human Gal-3 (hGal-3) were 6.19 and 7.28, respectively.
In the case of `Cc1ccc(-c2cn([C@H]3[C@@H](O)[C@@H](CO)O[C@H](Cc4cc(C(C)(C)C)no4)[C@@H]3O)nn2)c(F)c1F` [Example 2.50, (2R,3R,4R,5R,6R)-2-((3-(tert-butyl)isoxazol-5-yl)methyl)-4-(4-(2,3-difluoro-4-methylphenyl)-1H-1,2,3-triazol-1-yl)-6-(hydroxymethyl)tetrahydro-2H-pyran-3,5-diol], the pIC50 was 5.17 at human Gal-1 (hGal-1) and 6.89 on human Gal-3 (hGal-3).
Taken in the same sequence, the figures for `CCNC(=O)O[C@@H]1[C@@H](n2cc(-c3ccc(C)c(F)c3F)nn2)[C@@H](O)[C@@H](CO)O[C@@H]1Cc1cc(C(C)(C)C)no1` [Example 2.51, (2R,3R,4S,5R,6R)-2-((3-(tert-butyl)isoxazol-5-yl)methyl)-4-(4-(2,3-difluoro-4-methylphenyl)-1H-1,2,3-triazol-1-yl)-5-hydroxy-6-(hydroxymethyl)tetrahydro-2H-pyran-3-yl ethylcarbamate] were below 4.00 and 7.34.
The corresponding values for `Cc1ccc(-c2cn([C@H]3[C@@H](O)[C@@H](CO)O[C@H](Cc4cc(C(C)(C)C)no4)[C@@H]3OCc3nccn3C)nn2)c(F)c1F` [Example 2.52, (2R,3R,4S,5R,6R)-6-((3-(tert-butyl)isoxazol-5-yl)methyl)-4-(4-(2,3-difluoro-4-methylphenyl)-1H-1,2,3-triazol-1-yl)-2-(hydroxymethyl)-5-((1-methyl-1H-imidazol-2-yl)methoxy)tetrahydro-2H-pyran-3-ol] are 5.29 and 7.11.
Taken in the same sequence, the figures for `Cc1ccc(-c2cn([C@H]3[C@@H](O)[C@@H](CO)O[C@H](Cc4cc(C(C)(C)C)no4)[C@@H]3OCc3nccs3)nn2)c(F)c1F` [Example 2.53, (2R,3R,4S,5R,6R)-6-((3-(tert-butyl)isoxazol-5-yl)methyl)-4-(4-(2,3-difluoro-4-methylphenyl)-1H-1,2,3-triazol-1-yl)-2-(hydroxymethyl)-5-(thiazol-2-ylmethoxy)tetrahydro-2H-pyran-3-ol] were 5.98 and 7.28.
Take `Cc1ccc(-c2cn([C@H]3[C@@H](O)[C@@H](CO)O[C@H](Cc4cc(C(C)(C)C)no4)[C@@H]3OCc3cscn3)nn2)c(F)c1F` [Example 2.54, (2R,3R,4S,5R,6R)-6-((3-(tert-butyl)isoxazol-5-yl)methyl)-4-(4-(2,3-difluoro-4-methylphenyl)-1H-1,2,3-triazol-1-yl)-2-(hydroxymethyl)-5-(thiazol-4-ylmethoxy)tetrahydro-2H-pyran-3-ol]: the pIC50 on human Gal-1 (hGal-1) is 6.23; on human Gal-3 (hGal-3), 7.28.
The corresponding values for `Cc1ccc(-c2cn([C@H]3[C@@H](O)[C@@H](CO)O[C@H](Cc4cc(C(C)(C)C)no4)[C@@H]3OCc3cnco3)nn2)c(F)c1F` [Example 2.55, (2R,3R,4S,5R,6R)-6-((3-(tert-butyl)isoxazol-5-yl)methyl)-4-(4-(2,3-difluoro-4-methylphenyl)-1H-1,2,3-triazol-1-yl)-2-(hydroxymethyl)-5-(oxazol-5-ylmethoxy)tetrahydro-2H-pyran-3-ol] are 5.57 and 6.92.
Taken in the same sequence, the figures for `CO[C@@H]1[C@@H](n2cc(-c3cc(F)c(F)c(F)c3)nn2)[C@@H](O)[C@@H](CO)O[C@@H]1Cc1cc(C2(O)CCC2)no1` [Example 2.56, (2R,3R,4S,5R,6R)-6-((3-(1-hydroxycyclobutyl)isoxazol-5-yl)methyl)-2-(hydroxymethyl)-5-methoxy-4-(4-(3,4,5-trifluorophenyl)-1H-1,2,3-triazol-1-yl)tetrahydro-2H-pyran-3-ol] were 5.75 and 6.31.
The corresponding values for `CO[C@@H]1[C@@H](n2cc(-c3ccc(Cl)c(F)c3F)nn2)[C@@H](O)[C@@H](CO)O[C@@H]1Cc1cc(C2(O)CCC2)no1` [Example 2.59, (2R,3R,4S,5R,6R)-4-(4-(4-chloro-2,3-difluorophenyl)-1H-1,2,3-triazol-1-yl)-6-((3-(1-hydroxycyclobutyl)isoxazol-5-yl)methyl)-2-(hydroxymethyl)-5-methoxytetrahydro-2H-pyran-3-ol] are 5.64 and 7.08.
Regarding `CO[C@@H]1[C@@H](n2cc(-c3cc(F)c(F)c(F)c3)nn2)[C@@H](O)[C@@H](CO)O[C@@H]1Cc1cc(C(C)(C)O)no1` [Example 2.60, (2R,3R,4S,5R,6R)-2-(hydroxymethyl)-6-((3-(2-hydroxypropan-2-yl)isoxazol-5-yl)methyl)-5-methoxy-4-(4-(3,4,5-trifluorophenyl)-1H-1,2,3-triazol-1-yl)tetrahydro-2H-pyran-3-ol], the pIC50 on human Gal-1 (hGal-1) is 5.13; at human Gal-3 (hGal-3), 6.40.
The corresponding values for `CO[C@@H]1[C@@H](n2cc(-c3ccc(F)c(F)c3F)nn2)[C@@H](O)[C@@H](CO)O[C@@H]1Cc1cc(C(C)(C)O)no1` [Example 2.61, (2R,3R,4S,5R,6R)-2-(hydroxymethyl)-6-((3-(2-hydroxypropan-2-yl)isoxazol-5-yl)methyl)-5-methoxy-4-(4-(2,3,4-trifluorophenyl)-1H-1,2,3-triazol-1-yl)tetrahydro-2H-pyran-3-ol] are 6.11 and 6.96.
Taken in the same sequence, the figures for `CO[C@@H]1[C@@H](n2cc(-c3ccc(C)c(F)c3F)nn2)[C@@H](O)[C@@H](CO)O[C@@H]1Cc1cc(C(C)(C)O)no1` [Example 2.62, (2R,3R,4S,5R,6R)-4-(4-(2,3-difluoro-4-methylphenyl)-1H-1,2,3-triazol-1-yl)-2-(hydroxymethyl)-6-((3-(2-hydroxypropan-2-yl)isoxazol-5-yl)methyl)-5-methoxytetrahydro-2H-pyran-3-ol] were 5.64 and 7.44.
Taken in the same sequence, the figures for `CO[C@@H]1[C@@H](n2cc(-c3ccc(Cl)c(F)c3F)nn2)[C@@H](O)[C@@H](CO)O[C@@H]1Cc1cc(C(C)(C)O)no1` [Example 2.63, (2R,3R,4S,5R,6R)-4-(4-(4-chloro-2,3-difluorophenyl)-1H-1,2,3-triazol-1-yl)-2-(hydroxymethyl)-6-((3-(2-hydroxypropan-2-yl)isoxazol-5-yl)methyl)-5-methoxytetrahydro-2H-pyran-3-ol] were 5.76 and 7.13.
Regarding `CO[C@@H]1[C@@H](n2cc(-c3cc(F)c(F)c(F)c3)nn2)[C@@H](O)[C@@H](CO)O[C@@H]1C[C@@H]1CC(C2CCNCC2)=NO1` [Example 3.06, (2R,3R,4S,5R,6R)-2-(hydroxymethyl)-5-methoxy-6-(((S)-3-(piperidin-4-yl)-4,5-dihydroisoxazol-5-yl)methyl)-4-(4-(3,4,5-trifluorophenyl)-1H-1,2,3-triazol-1-yl)tetrahydro-2H-pyran-3-ol], the pIC50 on human Gal-1 (hGal-1) was 5.68; on human Gal-3 (hGal-3) it was 6.55.
Taken in the same sequence, the figures for `CO[C@@H]1[C@@H](n2cc(-c3cc(F)c(F)c(F)c3)nn2)[C@@H](O)[C@@H](CO)O[C@@H]1C[C@H]1CC(C2CCNCC2)=NO1` [Example 3.07, (2R,3R,4S,5R,6R)-2-(hydroxymethyl)-5-methoxy-6-(((R)-3-(piperidin-4-yl)-4,5-dihydroisoxazol-5-yl)methyl)-4-(4-(3,4,5-trifluorophenyl)-1H-1,2,3-triazol-1-yl)tetrahydro-2H-pyran-3-ol] were 4.82 and 5.73.
Taken in the same sequence, the figures for `OC[C@H]1O[C@H](Cc2cc(C3CCNCC3)on2)[C@H](O)[C@@H](n2cc(-c3cc(F)c(F)c(F)c3)nn2)[C@H]1O` [Example 3.08, (2R,3R,4R,5R,6R)-2-(hydroxymethyl)-6-((5-(piperidin-4-yl)isoxazol-3-yl)methyl)-4-(4-(3,4,5-trifluorophenyl)-1H-1,2,3-triazol-1-yl)tetrahydro-2H-pyran-3,5-diol] were 4.90 and 6.54.
Taken in the same sequence, the figures for `CC(=O)N1CCC(C2=NO[C@@H](C[C@H]3O[C@H](CO)[C@H](O)[C@H](n4cc(-c5cc(F)c(F)c(F)c5)nn4)[C@H]3O)C2)CC1` [Example 3.10, 1-(4-((R)-5-(((2R,3R,4R,5R,6R)-3,5-dihydroxy-6-(hydroxymethyl)-4-(4-(3,4,5-trifluorophenyl)-1H-1,2,3-triazol-1-yl)tetrahydro-2H-pyran-2-yl)methyl)-4,5-dihydroisoxazol-3-yl)piperidin-1-yl)ethan-1-one] were 5.26 and 6.21.
Take `CC(=O)N1CCC(C2=NO[C@H](C[C@H]3O[C@H](CO)[C@H](O)[C@H](n4cc(-c5cc(F)c(F)c(F)c5)nn4)[C@H]3O)C2)CC1` [Example 3.11, 1-(4-((S)-5-(((2R,3R,4R,5R,6R)-3,5-dihydroxy-6-(hydroxymethyl)-4-(4-(3,4,5-trifluorophenyl)-1H-1,2,3-triazol-1-yl)tetrahydro-2H-pyran-2-yl)methyl)-4,5-dihydroisoxazol-3-yl)piperidin-1-yl)ethan-1-one]: the pIC50 at human Gal-1 (hGal-1) was 5.86; on human Gal-3 (hGal-3), 6.82.
The corresponding values for `CO[C@@H]1[C@@H](n2cc(-c3cc(F)c(F)c(F)c3)nn2)[C@@H](O)[C@@H](CO)O[C@@H]1C[C@@H]1CC(C2CCN(C(C)=O)CC2)=NO1` [Example 3.12, 1-(4-((S)-5-(((2R,3R,4S,5R,6R)-5-hydroxy-6-(hydroxymethyl)-3-methoxy-4-(4-(3,4,5-trifluorophenyl)-1H-1,2,3-triazol-1-yl)tetrahydro-2H-pyran-2-yl)methyl)-4,5-dihydroisoxazol-3-yl)piperidin-1-yl)ethan-1-one] are 6.28 and 7.15.
